Laboratory results from patent publication US7109206B2.

Assays:
[1] = tested on: patients with severe coronary artery disease; assay: Angina symptoms and clinical outcome of treated patients (case reports); format: in vivo, human; conditions: for angina frequency: buspirone 20 mg t.i.d.; for time to clearing of congestive heart failure: furosemide 40 mg twice a day, digoxin 0.25 mg, warfarin 5 mg once a day
Description: The patient population in this study consisted of 11 individuals with severe coronary artery disease who were refractory to CABG or PCTA or who declined recommended CABG or PCTA, and one individual with severe carotid artery stenosis. The study group consisted of 10 men and 2 women, with a median age at entry into the program of 65 years (mean, 65.8 years), and a mean time in program of 4.1 years (range, 9 months to 12 years).
In this study, ten patients experienced angina at the time of presentation. The median time to remission of anginal symptoms was calculated on the basis of the nine patients who presented with angina and for whom records of anginal frequency were accessible.

[2] = tested on: patients with severe coronary artery disease; assay: Tolerability / adverse effects in treated patients
[3] = Serum lipids and laboratory values of treated patients (case reports)

Compound: NCCCC[C@H](N[C@@H](CCc1ccccc1)C(=O)O)C(=O)N1CCC[C@H]1C(=O)O [lisinopril]
- angina ([1]; Patient three, lisinopril 5 mg/day substituted for diltiazem 60 mg four times a day): Angina recurred with mild to moderate exercise

Compound: COc1ccc([C@@H]2Sc3ccccc3N(CCN(C)C)C(=O)[C@@H]2OC(C)=O)cc1 [diltiazem]
- angina ([1]; Patient three, diltiazem restarted after one month of lisinopril): prompt remission of angina

Compound: O=C(O)c1cccnc1 [niacin]
- adverse effect ([2]; Patient three, niacin 3.0 g/day, weeks 5-7, dose decreased to 1.5 g/day): itching and flushing
- tolerability ([2]; Patient two, niacin 3 g per day, dose decreased to 1 g per day): intolerance appeared

Compound: O=C1CC2(CCCC2)CC(=O)N1CCCCN1CCN(c2ncccn2)CC1 [buspirone]
- angina ([1]; Patient five, buspirone 15 mg t.i.d. added, induction phase): their angina remitted
- angina frequency ([1]; Patient five, no use of nitroglycerin): one episode of mild angina in two weeks
- angina frequency ([1]; Patient five, through June of the next year): no episodes of angina
- angina symptoms ([1]; Patient five, buspirone increased to 20 mg t.i.d., isosorbide dinitrate discontinued): Marked palliation of the symptoms
- chest tightness with anxiety or distress ([1]; Patient one, buspirone 10 mg b.i.d. added to medications): no further episodes of chest tightness were reported
- frequency of angina symptoms ([1]; Patient, buspirone 30 mg per day, after one month 15 mg t.i.d.): remained approximately constant
- severity of angina symptoms ([1]; Patient, buspirone 30 mg per day, after one month 15 mg t.i.d., added to medications): declined markedly, from pain to mild tightness
- anginal symptoms ([1]; Patient, buspirone, six months after initiation of therapy): resolved completely
- relief from refractory unstable angina ([1]; summary of results): effective in providing relief from refractory unstable angina

Compound: colestipol
- angina ([1]; Patient five, colestipol 12 g per day): severity of their angina declined
- serum total cholesterol, mean of three determinations ([3]; Patient five, colestipol 12 g per day, declined from 241): 217 mg/dL

Compound: C[C@H]1O[C@@H](O[C@H]2[C@@H](O)C[C@H](O[C@H]3[C@@H](O)C[C@H](O[C@H]4CC[C@@]5(C)[C@H](CC[C@@H]6[C@@H]5C[C@@H](O)[C@]5(C)[C@@H](C7=CC(=O)OC7)CC[C@]65O)C4)O[C@@H]3C)O[C@@H]2C)C[C@H](O)[C@@H]1O [digoxin]
- time to clearing of congestive heart failure ([1]; Patient three, given together): 24 h

Compound: O=c1n(CCCN2CCN(c3cccc(Cl)c3)CC2)nc2ccccn12 [trazodone]
- relief of fatigue and difficulty sleeping ([1]; Patient three, trazodone 50 mg and imipramine 25 mg at bedtime, given together): fair to moderate relief

Compound: CCC(C)(C)C(=O)O[C@H]1C[C@@H](C)C=C2C=C[C@H](C)[C@H](CC[C@@H]3C[C@@H](O)CC(=O)O3)[C@H]21 [simvastatin]
- serum total cholesterol, mean of five determinations ([3]; Patient four, simvastatin 40 mg per day substituted for pravastatin in the regimen, range 81-146): 118 mg/dL
- HDL cholesterol, mean of five determinations ([3]; Patient four, simvastatin 40 mg per day, range 37-71): 55 mg/dL
- HDL ([3]; Patient four, year of 1995): 82 mg/dL
- LDL ([3]; Patient four, year of 1995): 53 mg/dL
- total cholesterol ([3]; Patient four, year of 1995): 121 mg/dL
- triglycerides ([3]; Patient four, year of 1995): 44 mg/dL

Compound: CC(=O)CC(c1ccccc1)c1c(O)c2ccccc2oc1=O (centres unmarked) [warfarin]
- time to clearing of congestive heart failure ([1]; Patient three, given together): 24 h

Compound: CC[C@H](C)C(=O)O[C@H]1C[C@@H](C)C=C2C=C[C@H](C)[C@H](CC[C@@H]3C[C@@H](O)CC(=O)O3)[C@H]21 [lovastatin]
- adverse event ([2]; Patient four, on lovastatin 30 mg per day regimen, pravastatin substituted): mild conjunctivitis of unknown etiology
- total cholesterol ([3]; Patient two, fifth year, lovastatin discontinued, range 155 to 194): 176 mg/dL

Compound: O=[N+]([O-])OCC(CO[N+](=O)[O-])O[N+](=O)[O-] [nitroglycerin]
- angina after discontinuation ([1]; Patient five, discontinuation of the nitroglycerin): five episodes of angina
- nonexertional angina ([1]; Patient five, transdermal nitroglycerin): refractory
- left neck pain ([1]; Patient two, 15 months after induction of therapy): relieved
